Literature values as cited in patent US7452892B2, “Triazolopyrimidine cannabinoid receptor 1 antagonists” (Bristol-Myers Squibb Company, priority 2005, dated 2008).

Columns and labels:
[1] = chronic administration for two weeks
[2] = 16 week trial period

Compound | body weight [1] | body weight in human subjects [2]
Cc1c(C(=O)NN2CCCCC2)nn(-c2ccc(Cl)cc2Cl)c1-c1ccc(I)cc1 [AM-251] | substantial body weight reduction | 
Cc1c(C(=O)NN2CCCCC2)nn(-c2ccc(Cl)cc2Cl)c1-c1ccc(Cl)cc1 [SR-141716] |  | dose-dependently reduced body weight
